According to the NIST ThermoML archive (doi:10.1016/j.fluid.2017.03.008):

Key:
[1] = xn = mol fraction of the nth substance listed; details: for surface tension liquid-gas: Ring tensiometer; for viscosity / mass density: 101.3 kPa, Liquid; for viscosity: Capillary tube (Ostwald / Ubbelohde) method; for mass density: Vibrating tube method
[2] = refractive index (Na D-line) (dimensionless); xn = mol fraction of the nth substance listed; details: 101.3 kPa, Liquid, Standard Abbe refractometry

C[N+](C)(C)CCO.[Cl-] [choline chloride] + NCCO
Details	mass density, [1] [kg/m3]	refractive index, [2]	surface tension liquid-gas, [1] [mN/m]	viscosity, [1] [mPa·s]
298.15 K, x1 = 0.11	1062.8	1.47733	49.6	32.7
298.15 K, x1 = 0.13	1065	1.47875	49.2	37.7
298.15 K, x1 = 0.14	1069	1.48117	48.7	36.7
298.15 K, x1 = 0.16	1076.7	1.48388	48.2	48.5
308.15 K, x1 = 0.11	1055.2	1.47404	48.8	22.6
308.15 K, x1 = 0.13	1057.6	1.47541	48.5	25.5
308.15 K, x1 = 0.14	1061.7	1.47797	48	25
308.15 K, x1 = 0.16	1069.6	1.47998	47.6	28.8
318.15 K, x1 = 0.11	1047.8	1.47092	47.9	15
318.15 K, x1 = 0.13	1050.3	1.47217	47.8	13.8
318.15 K, x1 = 0.14	1054.4	1.47445	47.4	16.8
318.15 K, x1 = 0.16	1062.7	1.47623	46.9	20.1
328.15 K, x1 = 0.11	1040.4	1.46759	47.2	10.5
328.15 K, x1 = 0.13	1043	1.46908	47.1	10.1
328.15 K, x1 = 0.14	1047.2	1.47101	46.7	11.2
328.15 K, x1 = 0.16	1055.9	1.47257	46.2	13.5
338.15 K, x1 = 0.11	1033	1.46419	46.4	7.1
338.15 K, x1 = 0.13	1035.6	1.46539	46.4	7.9
338.15 K, x1 = 0.14	1039.9	1.46761	46	8.8
338.15 K, x1 = 0.16	1049	1.46842	45.6	9.8
348.15 K, x1 = 0.11	1025.6	1.46095	45.8	5.9
348.15 K, x1 = 0.13	1028.3	1.46171	45.8	6
348.15 K, x1 = 0.14	1032.6	1.46444	45.3	6.6
348.15 K, x1 = 0.16	1042	1.46421	45	7.5
358.15 K, x1 = 0.11	1018.1	1.45742	45	4.7
358.15 K, x1 = 0.13	1020.9	1.45833	44.9	5.2
358.15 K, x1 = 0.14	1025.3	1.46049	44.7	5.3
358.15 K, x1 = 0.16	1035	1.46031	44.4	5.9

C[P+](c1ccccc1)(c1ccccc1)c1ccccc1.[Br-] [methyltriphenylphosphonium bromide] + NCCO
Details	mass density, [1] [kg/m3]	refractive index, [2]	surface tension liquid-gas, [1] [mN/m]	viscosity, [1] [mPa·s]
298.15 K, x1 = 0.11	1092.9	1.50265	50.3	27.7
298.15 K, x1 = 0.13	1099.8	1.50587	50.2	28
298.15 K, x1 = 0.14	1107.4	1.51187	49.3	35.5
298.15 K, x1 = 0.16	1195.8	1.56644	48.9	128.9
308.15 K, x1 = 0.11	1085	1.49911	49.5	20
308.15 K, x1 = 0.13	1091.9	1.50221	49.3	20
308.15 K, x1 = 0.14	1100	1.50794	48.4	20.7
308.15 K, x1 = 0.16	1187.9	1.56247	48	84.9
318.15 K, x1 = 0.11	1077.1	1.49546	48.6	13.6
318.15 K, x1 = 0.13	1083.8	1.49935	48.2	13.1
318.15 K, x1 = 0.14	1092.2	1.50501	47.6	13.6
318.15 K, x1 = 0.16	1180.1	1.55846	47.2	37.9
328.15 K, x1 = 0.11	1068.9	1.49224	47.8	9.5
328.15 K, x1 = 0.13	1075.8	1.49519	47.2	9.1
328.15 K, x1 = 0.14	1084.2	1.50071	46.7	10
328.15 K, x1 = 0.16	1172.3	1.55518	46.4	25.4
338.15 K, x1 = 0.11	1060.8	1.48802	46.9	7
338.15 K, x1 = 0.13	1067.6	1.49063	46.3	6.9
338.15 K, x1 = 0.14	1076.1	1.49733	45.9	7.5
338.15 K, x1 = 0.16	1164.5	1.55159	45.6	15.6
348.15 K, x1 = 0.11	1052.7	1.48405	46.2	5.4
348.15 K, x1 = 0.13	1059.4	1.48631	45.3	5.4
348.15 K, x1 = 0.14	1068	1.49343	44.9	5.6
348.15 K, x1 = 0.16	1156.6	1.54699	44.8	10.7
358.15 K, x1 = 0.11	1044.7	1.47988	45.3	4.7
358.15 K, x1 = 0.13	1051.1	1.48215	44.4	4.8
358.15 K, x1 = 0.14	1059.8	1.49027	44.2	4.9
358.15 K, x1 = 0.16	1148.8	1.54286	44	9.1

CCCC[N+](CCCC)(CCCC)CCCC.[Br-] [tetrabutylammonium bromide] + NCCO
Details	mass density, [1] [kg/m3]	refractive index, [2]	surface tension liquid-gas, [1] [mN/m]	viscosity, [1] [mPa·s]
298.15 K, x1 = 0.14	1048.1	1.48383	36.1	22
298.15 K, x1 = 0.16	1056.6	1.4877	36	52.9
298.15 K, x1 = 0.2	1060.9	1.4881	35.8	80.2
298.15 K, x1 = 0.25	1061.6	1.49229	35.7	106.8
308.15 K, x1 = 0.14	1038.7	1.48033	35.7	15.5
308.15 K, x1 = 0.16	1048	1.48423	35.6	31
308.15 K, x1 = 0.2	1053.6	1.48464	35.4	54.7
308.15 K, x1 = 0.25	1054.5	1.48876	35.3	77
318.15 K, x1 = 0.14	1028.9	1.47704	35.4	12
318.15 K, x1 = 0.16	1041.5	1.48115	35.2	21.1
318.15 K, x1 = 0.2	1046.4	1.48169	35	38.2
318.15 K, x1 = 0.25	1047.3	1.48547	34.8	53.57
328.15 K, x1 = 0.14	1018.5	1.47349	35.1	9
328.15 K, x1 = 0.16	1034.1	1.47778	34.9	14.4
328.15 K, x1 = 0.2	1039.2	1.47851	34.6	20.1
328.15 K, x1 = 0.25	1040.2	1.48242	34.5	35.29
338.15 K, x1 = 0.14	1010.2	1.46989	34.7	6.8
338.15 K, x1 = 0.16	1026.7	1.47385	34.6	9
338.15 K, x1 = 0.2	1032	1.47541	34.3	13.4
338.15 K, x1 = 0.25	1033.1	1.47966	34	18.6
348.15 K, x1 = 0.14	1001.1	1.46595	34.4	5.7
348.15 K, x1 = 0.16	1019.3	1.46989	34.2	7.5
348.15 K, x1 = 0.2	1024.7	1.47164	33.9	10.5
348.15 K, x1 = 0.25	1026.1	1.47651	33.6	13.8
358.15 K, x1 = 0.14	992.1	1.46234	34.1	5.2
358.15 K, x1 = 0.16	1012	1.46632	33.9	5.2
358.15 K, x1 = 0.2	1017.4	1.46897	33.5	8
358.15 K, x1 = 0.25	1019	1.47303	33.2	10.2
